Conditions: 303.15 K, Liquid, Vibrating tube method

CCCCC(=O)OCC(COC(=O)CCCC)(COC(=O)CCCC)COC(=O)CCCC [pentaerythritol tetrapentanoate]
Conditions	mass density [kg/m3]
9247.2 kPa	1016.8
9281.8 kPa	1016.7
9311.6 kPa	1016.7
9342 kPa	1016.8
9371.6 kPa	1016.9
9407.8 kPa	1016.8
9438.5 kPa	1016.8
9469.3 kPa	1017
9495.9 kPa	1017
9521 kPa	1016.9
9552.9 kPa	1017
9584.8 kPa	1016.9
9608.9 kPa	1017
9634.2 kPa	1017
9666.8 kPa	1017
9688 kPa	1017
9719.7 kPa	1017.1
9746.4 kPa	1017.1
9779.5 kPa	1017.2
9805.7 kPa	1017.2
9831.9 kPa	1017.1
9858.9 kPa	1017.1
9892.2 kPa	1017.1
9921.6 kPa	1017.2
9948 kPa	1017.2
9980.5 kPa	1017.3
10009 kPa	1017.3
10046 kPa	1017.3
10069 kPa	1017.3
10099 kPa	1017.4
10134 kPa	1017.2
10161 kPa	1017.2
10195 kPa	1017.3
10225 kPa	1017.5
10254 kPa	1017.4
10289 kPa	1017.4
10319 kPa	1017.5
10351 kPa	1017.4
10382 kPa	1017.1
10417 kPa	1017.5
10448 kPa	1017.6
10480 kPa	1017.6
10517 kPa	1017.7
10550 kPa	1017.5
10583 kPa	1017.6
10624 kPa	1017.7
10658 kPa	1017.5
10690 kPa	1017.7
10713 kPa	1017.7
10757 kPa	1017.7
10800 kPa	1017.6
10821 kPa	1017.7
10840 kPa	1017.8
10863 kPa	1017.8
10883 kPa	1017.9
10904 kPa	1017.8
10928 kPa	1017.9
10947 kPa	1017.9
10968 kPa	1017.8
10992 kPa	1017.9
11013 kPa	1017.8
11033 kPa	1017.9
11058 kPa	1017.9
11078 kPa	1017.9
11101 kPa	1018
11121 kPa	1018
11147 kPa	1017.9
11168 kPa	1017.9
11191 kPa	1018.1
11213 kPa	1017.9
11234 kPa	1017.9
11255 kPa	1018.1
11281 kPa	1018
11302 kPa	1018
11328 kPa	1018.2
11349 kPa	1018.1
11372 kPa	1018.1
11398 kPa	1018.1
11420 kPa	1018.2
11443 kPa	1018
11469 kPa	1018.2
11491 kPa	1018.1
11513 kPa	1018.1
11541 kPa	1018.2
11564 kPa	1018.2
11586 kPa	1018.3
11612 kPa	1018.2
11635 kPa	1018.2
11658 kPa	1018.3
11688 kPa	1018.3
11710 kPa	1018.2
11734 kPa	1018.2
11758 kPa	1018.4
11785 kPa	1018.3
11809 kPa	1018.3
11838 kPa	1018.4
11862 kPa	1018.4
11884 kPa	1018.5
11909 kPa	1018.4
11938 kPa	1018.6
11963 kPa	1018.4
11988 kPa	1018.5
12014 kPa	1018.5
12044 kPa	1018.5
12069 kPa	1018.5
12095 kPa	1018.5
12120 kPa	1018.5
12148 kPa	1018.6
12173 kPa	1018.6
12205 kPa	1018.5
12229 kPa	1018.7
12254 kPa	1018.5
12285 kPa	1018.7
12312 kPa	1018.6
12338 kPa	1018.6
12366 kPa	1018.7
12391 kPa	1018.8
12423 kPa	1018.7
12449 kPa	1018.7
12476 kPa	1018.7
12508 kPa	1018.8
12536 kPa	1018.8
12562 kPa	1018.8
12596 kPa	1018.8
12621 kPa	1018.8
12649 kPa	1018.8
12682 kPa	1018.8
12710 kPa	1018.8
12740 kPa	1018.9
12766 kPa	1018.9
12798 kPa	1019
12826 kPa	1018.9
12856 kPa	1019
12889 kPa	1019.1
12918 kPa	1019.1
12946 kPa	1019
12980 kPa	1019.1
13009 kPa	1019
13044 kPa	1019.1
13075 kPa	1019.2
13102 kPa	1019.2
13132 kPa	1019.1
13169 kPa	1019.2
13197 kPa	1019.1
13227 kPa	1019.2
13258 kPa	1019.1
13295 kPa	1019.2
13324 kPa	1019.2
13359 kPa	1019.3
13390 kPa	1019.3
13421 kPa	1019.3
13458 kPa	1019.3
13489 kPa	1019.4
13520 kPa	1019.4
13558 kPa	1019.4
13590 kPa	1019.4
13622 kPa	1019.4
13660 kPa	1019.5
13693 kPa	1019.5
13725 kPa	1019.6

Source: the NIST ThermoML archive (doi:10.1021/je060271a)
